{"source": "PubChem BioAssay AID1259409", "about": "(Chemical Carcinogenesis Research Information System (CCRIS), 2018)", "origin": "cited, not measured here", "system": "rodent chemically induced tumor inhibition, incidence and multiplicity", "test": "CCRIS tumor inhibitor studies", "data": [{"smiles": "COc1ccc2cc1Oc1ccc(cc1)C[C@H]1c3cc(c(OC)cc3CCN1C)Oc1c(OC)c(OC)cc3c1[C@@H](C2)N(C)CC3", "values": [{"measurement": "tumour outcome (control, treated, inhibition, significance)", "setting": "Carcinogen: 7,12-DIMETHYLBENZ[A]ANTHRACENE, 57-97-6, Dose [Inhibitor]: 0, 2 UMOL 2/WK 30 MIN PRIOR TO EACH PROMOTER DOSE BEGINNING 1 WK POST CARCINOGEN DOSE (STUDY DURATION: 18 WK), Route [Inhibitor]: DERMAL, Species: MOUSE, Strain/Sex: ICR/FEMALE, Target Tissue: Type of Lesion: SKIN: PAPILLOMA, Dose [Carcinogen]: 50 UG ONCE, Promoter: 12-O-TETRADECANOYLPHORBOL-13-ACETATE, 16561-29-8", "result": "100%, 27%, 73%, not calculated"}]}, {"smiles": "CC(C)(C)c1cc(-c2cc(C(C)(C)C)c(O)c(C(C)(C)C)c2)cc(C(C)(C)C)c1O", "values": [{"measurement": "tumour outcome (control, treated, inhibition, significance)", "setting": "Carcinogen: BENZO[A]PYRENE, 50-32-8, Dose [Inhibitor]: 0.03 MMOL/G OF DIET DAILY STARTING 7 D BEFORE AND CONTINUING THROUGH 3 D AFTER CARCINOGEN TREATMENT FOLLOWED BY OBSERVAT, Route [Inhibitor]: ORAL, Species: MOUSE, Strain/Sex: ICR/FEMALE, Target Tissue: Type of Lesion: FORESTOMACH: NEOPLASM, Dose [Carcinogen]: 1 MG IN 0.2 ML CORN OIL 2/WK FOR 4 WK, Promoter: NONE USED", "result": "90%, 89%, 1%, not significant"}]}, {"smiles": "CC[C@@H](C)[C@H](NC(=O)CN)C(=O)N[C@H](C(=O)N[C@@H](CCC(=O)O)C(=O)N[C@@H](CCC(N)=O)C(=O)N[C@H]1CSSC[C@H]2NC(=O)[C@H]([C@H](C)CC)NC(=O)[C@H](CO)NC(=O)[C@H]([C@H](C)O)NC(=O)[C@H](CSSC[C@H](NC(=O)[C@H](CC(C)C)NC(=O)[C@H](Cc3c[nH]cn3)NC(=O)[C@H](CCC(N)=O)NC(=O)[C@@H](NC(=O)[C@@H](NC(=O)[C@@H](N)Cc3ccccc3)C(C)C)C(N)=O)C(=O)NCC(=O)N[C@@H](CO)C(=O)N[C@@H](Cc3c[nH]cn3)C(=O)N[C@@H](CC(C)C)C(=O)N[C@@H](C(C)C)C(=O)N[C@@H](CCC(=O)O)C(=O)N[C@@H](C)C(=O)N[C@@H](CC(C)C)C(=O)N[C@@H](Cc3ccc(O)cc3)C(=O)N[C@@H](CC(C)C)C(=O)N[C@@H](C(C)C)C(=O)N[C@H](C(=O)NCC(=O)N[C@@H](CCC(=O)O)C(=O)N[C@@H](CCCNC(=N)N)C(=O)NCC(=O)N[C@@H](Cc3ccccc3)C(=O)N[C@@H](Cc3ccccc3)C(=O)N[C@@H](Cc3ccc(O)cc3)C(=O)N[C@H](C(=O)N3CCC[C@H]3C(=O)N[C@@H](CCCCN)C(=O)N[C@H](C(=O)O)[C@H](C)O)[C@H](C)O)CSSC[C@@H](C(=O)N[C@@H](CC(N)=O)C(=O)O)NC(=O)[C@H](Cc3ccc(O)cc3)NC(=O)[C@H](CC(N)=O)NC(=O)[C@H](CCC(=O)O)NC(=O)[C@H](CC(C)C)NC(=O)[C@H](CCC(N)=O)NC(=O)[C@H](Cc3ccc(O)cc3)NC(=O)[C@H](CC(C)C)NC(=O)[C@H](CO)NC2=O)NC1=O)C(C)C", "values": [{"measurement": "tumour outcome (control, treated, inhibition, significance)", "setting": "Carcinogen: 7,12-DIMETHYLBENZ[A]ANTHRACENE, 57-97-6, Dose [Inhibitor]: 0, 10 I.U. FOR 7 D BEGINNING 3 D PRIOR TO CARCINOGEN DOSE (STUDY DURATION: 6 MO), Route [Inhibitor]: SUBCUTANEOUS, Species: RAT, Strain/Sex: SWISS/FEMALE, Target Tissue: Type of Lesion: MAMMARY GLAND: TUMOR, Dose [Carcinogen]: 20 MG IN 4 ML OLIVE OIL ONCE, Promoter: NONE USED", "result": "22/33 (67%), 6/32 (19%), 72%, not calculated"}]}, {"smiles": "CCCCC(=O)O[C@H]1CC[C@H]2[C@@H]3CCc4cc(O)ccc4[C@H]3CC[C@]12C", "values": [{"measurement": "tumour outcome (control, treated, inhibition, significance)", "setting": "Carcinogen: DIMETHYLNITROSAMINE, 62-75-9, Dose [Inhibitor]: 1 MG IN CASTOR OIL ADMINISTERED TO IMMATURE RATS 1/4 WK FOR LIFE BEGINNING 100 D POST CARCINOGEN DOSE (STUDY DURATION: 1, Route [Inhibitor]: SUBCUTANEOUS, Species: RAT, Strain/Sex: STRAIN-CD/MALE, Target Tissue: Type of Lesion: KIDNEY TUBULE: ADENOMA, Dose [Carcinogen]: 30 MG/KG IN DISTILLED WATER ONCE, Promoter: NONE USED", "result": "15/28 (54%), 9/25 (36%), 33%, not calculated"}, {"measurement": "tumour outcome (control, treated, inhibition, significance)", "setting": "Carcinogen: DIMETHYLNITROSAMINE, 62-75-9, Dose [Inhibitor]: 1 MG IN CASTOR OIL ADMINISTERED TO IMMATURE RATS 1/4 WK FOR LIFE BEGINNING 100 D POST CARCINOGEN DOSE (STUDY DURATION: 1, Route [Inhibitor]: SUBCUTANEOUS, Species: RAT, Strain/Sex: STRAIN-CD/MALE, Target Tissue: Type of Lesion: KIDNEY: MESENCHYMAL TUMOR, Dose [Carcinogen]: 30 MG/KG IN DISTILLED WATER ONCE, Promoter: NONE USED", "result": "16/28 (57%), 14/25 (56%), 2%, not significant"}, {"measurement": "tumour outcome (control, treated, inhibition, significance)", "setting": "Carcinogen: DIMETHYLNITROSAMINE, 62-75-9, Dose [Inhibitor]: 1 MG IN CASTOR OIL ADMINISTERED TO IMMATURE RATS 1/4 WK FOR LIFE BEGINNING 100 D POST CARCINOGEN DOSE (STUDY DURATION: 1, Route [Inhibitor]: SUBCUTANEOUS, Species: RAT, Strain/Sex: STRAIN-CD/MALE, Target Tissue: Type of Lesion: KIDNEY: TRANSITIONAL CELL TUMOR, Dose [Carcinogen]: 30 MG/KG IN DISTILLED WATER ONCE, Promoter: NONE USED", "result": "1/28 (4%), 0/25 (0%), 100%, not significant"}, {"measurement": "tumour outcome (control, treated, inhibition, significance)", "setting": "Carcinogen: DIMETHYLNITROSAMINE, 62-75-9, Dose [Inhibitor]: 1 MG IN CASTOR OIL ADMINISTERED TO IMMATURE RATS 1/4 WK FOR LIFE BEGINNING 100 D POST CARCINOGEN DOSE (STUDY DURATION: 1, Route [Inhibitor]: SUBCUTANEOUS, Species: RAT, Strain/Sex: STRAIN-CD/MALE, Target Tissue: Type of Lesion: LUNG: ALVEOGENIC TUMOR, Dose [Carcinogen]: 30 MG/KG IN DISTILLED WATER ONCE, Promoter: NONE USED", "result": "19/28 (68%), 6/25 (24%), 65%, p<0.001"}, {"measurement": "tumour outcome (control, treated, inhibition, significance)", "setting": "Carcinogen: DIMETHYLNITROSAMINE, 62-75-9, Dose [Inhibitor]: 1 MG IN CASTOR OIL ADMINISTERED TO MATURE RATS 1/4 WK FOR LIFE BEGINNING 100 D POST CARCINOGEN DOSE (STUDY DURATION: 140, Route [Inhibitor]: SUBCUTANEOUS, Species: RAT, Strain/Sex: STRAIN-CD/MALE, Target Tissue: Type of Lesion: KIDNEY TUBULE: ADENOMA, Dose [Carcinogen]: 30 MG/KG IN DISTILLED WATER ONCE, Promoter: NONE USED", "result": "16/26 (62%), 18/28 (64%), -3%, not significant"}, {"measurement": "tumour outcome (control, treated, inhibition, significance)", "setting": "Carcinogen: DIMETHYLNITROSAMINE, 62-75-9, Dose [Inhibitor]: 1 MG IN CASTOR OIL ADMINISTERED TO MATURE RATS 1/4 WK FOR LIFE BEGINNING 100 D POST CARCINOGEN DOSE (STUDY DURATION: 140, Route [Inhibitor]: SUBCUTANEOUS, Species: RAT, Strain/Sex: STRAIN-CD/MALE, Target Tissue: Type of Lesion: LUNG: ALVEOGENIC TUMOR, Dose [Carcinogen]: 30 MG/KG IN DISTILLED WATER ONCE, Promoter: NONE USED", "result": "13/26 (50%), 3/28 (11%), 78%, p<0.05"}]}, {"smiles": "CCCCCCCCCCCCCCCCCCCCCC(O)CC(O)CCCCC", "note": "(centres undefined)", "values": [{"measurement": "tumour outcome (control, treated, inhibition, significance)", "setting": "Carcinogen: 7,12-DIMETHYLBENZ[A]ANTHRACENE, 57-97-6, Dose [Inhibitor]: 0, 2 UMOL APPLIED 30 MIN PRIOR TO EACH PROMOTER DOSE 2/WK FOR 20 WK BEGINNING 7 D POST CARCINOGEN DOSE (STUDY DURATION:, Route [Inhibitor]: DERMAL, Species: MOUSE, Strain/Sex: ICR/FEMALE, Target Tissue: Type of Lesion: SKIN: PAPILLOMA, Dose [Carcinogen]: 50 UG IN 100 µL ACETONE ONCE, Promoter: 12-O-TETRADECANOLYPHORBOL-13-ACETATE, 16561-29-8", "result": "93%, 20%, 78%, not significant"}]}, {"smiles": "CC/C=C\\C/C=C\\C/C=C\\CCCCCCCC(=O)O", "values": [{"measurement": "tumour outcome (control, treated, inhibition, significance)", "setting": "Carcinogen: 7,12-DIMETHYLBENZ[A]ANTHRACENE, 57-97-6, Dose [Inhibitor]: 0, 16 NMOL IN 0.1 ML ACETONE 2/WK FOR 20 WK APPLIED 40 MIN PRIOR TO EACH PROMOTER DOSE (STUDY DURATION: 21 WK), Route [Inhibitor]: DERMAL, Species: MOUSE, Strain/Sex: ICR/FEMALE, Target Tissue: Type of Lesion: SKIN: TUMOR, Dose [Carcinogen]: 0.19 UMOL IN 0.1 ML ACETONE ONCE, Promoter: 12-O-TETRADECANOYLPHORBOL-13-ACETATE, 16561-29-8", "result": "87%, 80%, 8%, not significant"}, {"measurement": "tumour outcome (control, treated, inhibition, significance)", "setting": "Carcinogen: 7,12-DIMETHYLBENZ[A]ANTHRACENE, 57-97-6, Dose [Inhibitor]: 0, 160 NMOL IN 0.1 ML ACETONE 2/WK FOR 20 WK APPLIED 40 MIN PRIOR TO EACH PROMOTER DOSE (STUDY DURATION: 21 WK), Route [Inhibitor]: DERMAL, Species: MOUSE, Strain/Sex: ICR/FEMALE, Target Tissue: Type of Lesion: SKIN: TUMOR, Dose [Carcinogen]: 0.19 UMOL IN 0.1 ML ACETONE ONCE, Promoter: 12-O-TETRADECANOYLPHORBOL-13-ACETATE, 16561-29-8", "result": "87%, 47%, 46%, p<0.005"}]}, {"smiles": "CCCCC(C)(O)C/C=C/[C@H]1[C@H](O)CC(=O)[C@@H]1CCCCCCC(=O)OC", "note": "(some centres undefined)", "values": [{"measurement": "tumour outcome (control, treated, inhibition, significance)", "setting": "Carcinogen: N-METHYL-N'-NITRO-N-NITROSOGUANIDINE, 70-25-7, Dose [Inhibitor]: 0, 200 UG/KG/D IN DRINKING WATER FOR 52 WK CONCURRENTLY WITH CARCINOGEN TREATMENT (STUDY DURATION: 52 WK), Route [Inhibitor]: ORAL, Species: RAT, Strain/Sex: SPRAGUE-DAWLEY/MALE, Target Tissue: Type of Lesion: GLANDULAR STOMACH: ADENOCARCINOMA, Dose [Carcinogen]: 120 MG/L IN DRINKING WATER FOR 52 WK, Promoter: NONE USED", "result": "9/15 (60%), 5/20 (25%), 58%, p<0.05"}]}, {"smiles": "COc1ccc([SeH])cc1", "values": [{"measurement": "tumour outcome (control, treated, inhibition, significance)", "setting": "Carcinogen: BENZO[A]PYRENE, 50-32-8, Dose [Inhibitor]: 0, 3.3 UMOL/G DIET BEGINNING 1 WK PRIOR TO CARCINOGEN TREATMENT AND CONTINUING FOR 1 WK POST CARCINOGEN TREATMENT FOLLOW, Route [Inhibitor]: ORAL, Species: MOUSE, Strain/Sex: CD-1/FEMALE, Target Tissue: Type of Lesion: FORESTOMACH: PAPILLOMA, Dose [Carcinogen]: 1 MG IN 0.2 ML CORN OIL 2/WK FOR 4 WK, Promoter: NONE USED", "result": "85%, 75%, 12%, not significant"}]}]}
